Article PMC12434536, “Radiosynthesis and Preclinical Evaluation of a Carbon-11 Labeled Phosphodiesterase 7 Inhibitor for PET Neuroimaging” (ACS Medicinal Chemistry Letters, 2025)

Legend:
PDE7 [1] = experiment: PET imaging in nonhuman primates (baseline and self-blocking); format: in vivo, Cynomolgus monkeys; conditions: monkeys, self-blocking, 0.4 or 1 mg/kg
Experimental: Cynomolgus monkeys used for PET/CT scan were deprived of food for 12h but allowed to drink water at any time. Animals (Male, bodyweight 5.0-5.2 kg) were anesthetized with ketamine, placed into the scanner (GE Discovery Elite 690, USA), and maintained with 2% isoflurane and 98% oxygen. A solution of [11C]27 (6.24–9.84 mCi) was injected into the monkey via a venous catheter, followed by a dynamic PET scan. For the blocking study, the blocking reagent reference compound 27 (0.4 or 1.0 mg/kg, iv) was used, followed by the injection of [11C]27. Time-activity curves of each brain region were extracted from the corresponding VOIs and brain uptake was decay-corrected and expressed as SUV. biodistribution studies in miceWhole-body ex vivo

hERG channel = hERG channel (Homo sapiens, UniProt Q12809); experiment: In vitro safety: hERG channel inhibition; format: biochemical
Experimental: time-dependent manner for 80 min with an acquisition interval of 2 min. IC50 curves were
plotted using a non-linear regression model with Graphpad Prism 6. The latter method was
further applied to assess the inhibitory constant of compound 27 to the hERG channel. […]

PDE7 [2] = experiment: PET imaging in rats (baseline and self-blocking); format: in vivo, Sprague-Dawley rats; conditions: SD rats, self-blocking, 1 mg/kg
Experimental: page 10: All animal experiments were approved by the Institutional Animal Care and Use Committee of Massachusetts General Hospital or the National Institute of Radiological Sciences (Japan). C57BL/6 mice (female; 8 weeks, 20-25 g) and Sprague-Dawley rats (male; 8-9 weeks; 264-310 g) were kept on a 12 h light/12 h dark cycle and were allowed food and water ad libitum. Rodent PET scans were carried out using a […] (Sofie Biosciences, Culver, CA, USA) or a Siemens Inveon PET/CT system. Animals were kept under anesthesia using 1-2% (v/v) isoflurane in oxygen during the scan. The radiotracer (1.85 MBq for mice; 42-53 MBq for rats) was injected into the tail vein via a preinstalled catheter. A dynamic scan in 3D list mode was acquired for 60 min. The PET dynamic images were reconstructed using the manufacturer's acquisition software. Volumes of interest, including whole brain, cortex, striatum, hippocampus, thalamus and cerebellum were placed using AMIDE / PMOD software. The radioactivity was decay-corrected and expressed as standardized uptake value (SUV = radioactivity per mL tissue / injected radioactivity × bodyweight). S8

CYP1A2 = molecular target: T1, CYP1A2 (Homo sapiens, UniProt P05177); experiment: CYP450 isoform inhibition profiling, CYP1A2; format: in vitro ADME
T1 sequence (P05177 1-516): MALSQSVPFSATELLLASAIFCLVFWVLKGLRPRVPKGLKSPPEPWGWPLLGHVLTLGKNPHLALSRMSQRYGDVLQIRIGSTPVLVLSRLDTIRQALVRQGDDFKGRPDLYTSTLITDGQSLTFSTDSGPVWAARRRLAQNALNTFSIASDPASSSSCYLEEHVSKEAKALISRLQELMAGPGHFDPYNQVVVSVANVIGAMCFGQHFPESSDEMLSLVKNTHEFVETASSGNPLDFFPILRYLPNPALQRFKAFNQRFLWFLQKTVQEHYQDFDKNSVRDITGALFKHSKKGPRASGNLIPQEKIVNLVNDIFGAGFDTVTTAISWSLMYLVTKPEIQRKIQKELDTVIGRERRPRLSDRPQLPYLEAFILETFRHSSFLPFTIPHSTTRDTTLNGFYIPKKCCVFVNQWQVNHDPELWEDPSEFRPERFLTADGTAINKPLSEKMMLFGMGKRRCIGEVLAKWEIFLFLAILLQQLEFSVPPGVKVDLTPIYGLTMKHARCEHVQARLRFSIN
Experimental: page 5: protein-ligand complex were saved and were then loaded into Schrödinger Maestro to generate the ligand interaction plot. In vitro inhibitory assay to PDE7 of compound 27 and selectivity to other PDEs Functional activity of target compound 27 for inhibition of PDE7A activity and the selectivity over other PDE isozymes ([…], and 10A) were evaluated by Eurofins Panlabs Discovery Services and Reaction Biology Corp., respectively. Human recombinant enzymes were used for the assays. The inhibitory assays were performed and calculated in duplicate at 3 μM. If the inhibition percentage was less […] duplicate. CYP450 isoform metabolism and in vitro safety profiling The inhibitory constant of compound 26 toward cytochrome P450-dependent metabolic pathways was determined for individual CYP isoform (CYP1A2, CYP2C9, CYP2C19, CYP2D6, and CYP3A4). Reference inhibitors were included as positive controls. A 10 μM solution of compound 27 was used for initial screening. If the inhibition percentage was less than 50%, the experiment was stopped. […] gradient concentrations of compound 27 were used for IC 50 determination. The P450 reactions were detected at Ext/Em: 405 nm/460 nm (530 nm/605 nm for CYP2C9) in a S3 page 6: […] IC50 curves were plotted using a non-linear regression model with Graphpad Prism 6. […] Plasma and brain samples were quantified by LC-MS/MS method. […]

[3] = molecular target: T2, HEK293-PDE7B recombinant cell lines (Homo sapiens, UniProt Q9NP56); experiment: In vitro cell uptake and blocking of [11C]27; format: cell-based; conditions: blocker 1 μM, 60 min incubation, PDE7B overexpressing HEK293 cells, n = 4
T2 construct: host or cells: HEK293
Experimental: Control study: HEK293-PDE7B Recombinant cells (catalog#60412, BPS Bioscience) and HEK293 control cells (catalog# CRL-1573, ATCC) – both in logarithmic growth phase – were plated in a 24 well plate (2 × 10^5 cells per well) and cultured overnight. After 24 hr, each well was added 2 μCi of [ 11C]27, and incubated at 37 °C for 30 min or 60 min. The radioactive medium was aspirated and collected in a tube. The residual cells were washed twice with PBS, and then collected in the same tube. The cells were lysed with 1 N NaOH (200 μL) and washed twice with PBS, all the resulting solutions were collected in one tube.
The radioactivity in the collected supernatant and cell lysis buffer (600 μL/tube) was measured using a Cobra Model 5002/5003 gamma counter, respectively.
Blocking study: HEK293-PDE7B cells in logarithmic growth phase were plated in 24 well plate (2 × 10^5 cells per well) and cultured overnight. After 24 h, each well was added 2 μCi of [11C]27 with or without unlabeled reference compound 27 or BRL50481, respectively. The resulting culture medium contained 2 μCi of [ 11C]27, 1 µM of unlabeled compound 27 or BRL50481, and 5% DMSO. Cells were incubated at 37 °C for 60 min and samples were collected as described for the control study. The cell uptake was calculated according to the following eq.: cell uptake% = A lysis buffer/(A lysis buffer+Asupernate) (n = 4)

T2 sequence (Q9NP56 whole entry): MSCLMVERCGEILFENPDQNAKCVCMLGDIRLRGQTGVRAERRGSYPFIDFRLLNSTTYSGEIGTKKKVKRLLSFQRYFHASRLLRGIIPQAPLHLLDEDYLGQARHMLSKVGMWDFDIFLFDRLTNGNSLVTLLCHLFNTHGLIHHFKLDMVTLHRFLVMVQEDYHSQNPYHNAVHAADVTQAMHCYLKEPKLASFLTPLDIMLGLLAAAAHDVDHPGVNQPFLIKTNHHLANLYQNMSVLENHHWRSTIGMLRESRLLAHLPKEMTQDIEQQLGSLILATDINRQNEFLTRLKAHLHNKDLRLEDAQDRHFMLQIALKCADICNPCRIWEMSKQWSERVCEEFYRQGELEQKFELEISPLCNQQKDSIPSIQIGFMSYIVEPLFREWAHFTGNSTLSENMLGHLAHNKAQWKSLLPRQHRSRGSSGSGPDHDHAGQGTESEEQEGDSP
Sequence of hERG channel (Q12809 whole entry): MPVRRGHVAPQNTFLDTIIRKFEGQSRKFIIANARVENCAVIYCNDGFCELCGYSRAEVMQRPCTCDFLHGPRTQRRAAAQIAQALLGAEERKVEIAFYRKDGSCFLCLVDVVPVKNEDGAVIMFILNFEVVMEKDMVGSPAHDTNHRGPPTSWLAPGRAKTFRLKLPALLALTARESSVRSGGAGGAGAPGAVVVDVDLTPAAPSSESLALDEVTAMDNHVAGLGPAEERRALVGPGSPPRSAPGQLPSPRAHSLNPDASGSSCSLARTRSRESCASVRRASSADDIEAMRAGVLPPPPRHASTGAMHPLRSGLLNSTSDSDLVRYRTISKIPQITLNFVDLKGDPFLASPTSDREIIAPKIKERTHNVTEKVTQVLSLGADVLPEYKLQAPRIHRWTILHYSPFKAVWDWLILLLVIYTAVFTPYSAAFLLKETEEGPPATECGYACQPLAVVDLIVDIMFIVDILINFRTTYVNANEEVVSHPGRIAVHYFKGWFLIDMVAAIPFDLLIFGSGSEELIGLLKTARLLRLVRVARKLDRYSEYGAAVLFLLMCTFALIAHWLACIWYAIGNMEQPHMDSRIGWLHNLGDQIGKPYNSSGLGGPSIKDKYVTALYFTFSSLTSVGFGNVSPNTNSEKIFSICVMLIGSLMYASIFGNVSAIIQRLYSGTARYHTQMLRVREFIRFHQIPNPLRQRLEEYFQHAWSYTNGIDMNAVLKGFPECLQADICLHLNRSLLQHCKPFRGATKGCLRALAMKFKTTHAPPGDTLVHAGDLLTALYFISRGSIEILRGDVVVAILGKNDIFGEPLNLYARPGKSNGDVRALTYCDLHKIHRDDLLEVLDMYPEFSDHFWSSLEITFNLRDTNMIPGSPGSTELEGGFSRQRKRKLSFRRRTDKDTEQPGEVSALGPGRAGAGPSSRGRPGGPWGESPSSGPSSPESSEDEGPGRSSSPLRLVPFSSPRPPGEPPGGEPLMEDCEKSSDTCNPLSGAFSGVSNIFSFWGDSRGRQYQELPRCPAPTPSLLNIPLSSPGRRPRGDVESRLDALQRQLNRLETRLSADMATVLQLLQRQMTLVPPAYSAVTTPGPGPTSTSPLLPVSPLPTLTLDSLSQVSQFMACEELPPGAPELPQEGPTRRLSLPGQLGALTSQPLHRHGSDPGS

## COc1ccc(Cl)c2c1C1(CCCCC1)NC(=O)N2 [Compound 27]
PDE7 [1]
  effect of pretreatment on [11C]27 uptake in all assessed brain regions: moderately reduced
hERG channel
  IC50: > 100 µM
PDE7 [2]
  effect of pretreatment on [11C]27 brain uptake: marginally reduced brain uptake
CYP1A2
  IC50: 4.4 µM
[3]
  blockade of [11C]27 cell uptake: ca. 90%
